Results: paper PMC3477139 (PLoS ONE, 2012)

What was measured:
[1] = molecular target: T1, human GLP-1R (Homo sapiens, UniProt P43220); conditions: earlier studies; interpretation may be compromised by adverse effects of compound 2; ref [7]; cited from earlier work
T1 construct: expressed in transfected cells; vector pcDNA5/FRT
From the text: Given its physiological roles, the GLP-1R is targeted for treatment of type 2 diabetes. […] Such proteolysis is thought to remove biological activity.

[2] = test system: wild-type HEK293 cells; assay: ERK activation in wild-type HEK293 cells; type: cell-based; conditions: data not shown
Experimental: Cells grown to confluence on 24-well plates pre-coated with poly-D-lysine (0.1% w/v) were washed and equilibrated in KHB at 37°C (400 µl). Cells were challenged at 37°C in 400 µl KHB-BSA and reactions terminated by replacement of buffer with 100 µl ice-cold Laemmli sample buffer (62.5 mM Tris-HCl, pH 6.8, 2% w/v SDS, 10% v/v glycerol, 50 mM DTT and 0.1% bromophenol blue). Proteins (∼30 µg) were separated by 12% SDS-PAGE, transferred onto polyvinylidene fluoride membranes, blocked for 1 h in 5% (w/v) skimmed milk powder in TTBS (150 mM NaCl, 50 mM Tris, pH 7.5, 0.1% Tween-20) and incubated overnight at 4°C with anti-phospho-ERK antibody (1∶2000) or anti-S6 antibody (1∶20,000) in 3% BSA in TTBS. Blots were washed (3×10 min) in TTBS and incubated for 1 h with anti-mouse HRP conjugated secondary antibody (1∶1000 in blocking buffer). After washing in TTBS (3×10 min), blots were exposed to ECL detection reagents (Uptima-Interchim, Montlucon, France) according to the manufacturer's guidelines and bands visualised using Kodak Medical X-ray film (Wolf Laboratories Ltd, Pocklington, U.K.). The intensities of the immunoblot bands were determined using ImageJ.

[3] = test system: adenylyl cyclase; assay: cAMP generation by direct activation of adenylyl cyclase with forskolin; type: biochemical; conditions: data not shown
Experimental: Generation of cAMP by cell membranes was determined based on previously published methods, [21]. Membranes were prepared from confluent cell monolayers grown in 80 cm^2 flasks. Cells were washed with 5 ml HBS (154 mM NaCl, 10 mM HEPES, pH 7.4, 37°C), detached using harvesting buffer (154 mM NaCl, 10 mM HEPES, 5.4 mM EDTA, pH 7.4, 37°C) and collected by centrifugation (200 g, 2 min, 4°C). The cell pellet was resuspended in 1 ml of homogenization buffer (10 mM HEPES, 10 mM EDTA, pH 7.4) and sonicated (Sonifier Ultrasonic Cell Disruptor; Branson, CT) at 30% of the maximal amplitude for 3×5 s at ∼30 s intervals before centrifugation (30,000 g, 4°C, 10 min). After removal of the supernatant, pellets were collected in resuspension buffer (10 mM HEPES, 0.1 mM EDTA, pH 7.4), protein concentration adjusted to 1 mg/ml and stored in aliquots at −80°C until assay. Generation of cAMP was determined in 100 µl containing: 10 mM HEPES, 12 mM MgCl2, 60 mM NaCl, 1.2 mM EDTA, 1.2% w/v BSA, 5% DMSO, 480 µM ATP, 2 mM IBMX, 10 µM GTP, 20 µg membrane and ligands as indicated. […]
(§1) The cAMP was extracted from either intact cell or membrane preparations using a method identical to that for extraction of Ins(1,4,5)P3 [22]. Levels of cAMP were then determined by a competitive radioreceptor assay using binding protein purified from bovine adrenal glands and related to cellular protein assessed by Bradford assay.

[4] = molecular target: T1, human GLP-1R; assay: Intracellular Ca2+ signaling in fluo-4-loaded HEK-GLP-1R cells; type: cell-based
Experimental: Concentration-response curves were fitted using GraphPad Prism (GraphPad Software Inc., CA) using a standard four parameter logistic equation. All data are representative of n≥3 or are presented as mean+/±s.e.m., where n = 3 unless otherwise stated. Statistical analysis was by oneway ANOVA and where P<0.05, followed by Bonferroni's or Dunnett's multiple range test as indicated. Alternatively analysis was performed by Student's t-test. Where potency estimates are given these are pEC50 values (−log10 of the molar concentration giving 50% of the maximal response).

[5] = test system: GLP-1R; conditions: ref [7]; cited from earlier work
[6] = test system: β2-adrenoceptors; assay: cAMP accumulation via β2-adrenoceptors in HEK-GLP-1R cells; type: cell-based
Experimental: Ligands or vehicle control (40 µl) were added and reactions terminated after the appropriate times by replacement of the aqueous phase with ice-cold 0.5 M trichloroacetic acid. […] Reactions were terminated as above.
as §1
All data are mean±/+s.e.m., n = 3–4, *** P<0.001 and ** P<0.01 by Bonferroni's multiple range test. For clarity only differences between ‘numerical’ and ‘co-addition’ conditions are shown.

T1 sequence (P43220 24-463): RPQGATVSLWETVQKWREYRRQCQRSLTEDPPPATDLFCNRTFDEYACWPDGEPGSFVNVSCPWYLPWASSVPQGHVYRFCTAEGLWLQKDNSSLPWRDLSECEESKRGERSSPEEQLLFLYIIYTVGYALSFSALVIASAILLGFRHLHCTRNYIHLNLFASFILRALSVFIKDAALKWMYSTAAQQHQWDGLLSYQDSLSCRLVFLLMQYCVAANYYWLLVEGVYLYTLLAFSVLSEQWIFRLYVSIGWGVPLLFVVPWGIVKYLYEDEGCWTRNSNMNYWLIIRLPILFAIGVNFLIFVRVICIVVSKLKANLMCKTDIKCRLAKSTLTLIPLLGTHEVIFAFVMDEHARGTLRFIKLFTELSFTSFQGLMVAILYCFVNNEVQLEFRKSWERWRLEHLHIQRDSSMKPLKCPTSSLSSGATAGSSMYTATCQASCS

In the case of CC(C)(C)Nc1nc2cc(Cl)c(Cl)cc2nc1S(C)(=O)=O [compound 2, 6,7-dichloro-2-methylsulfonyl-3-N-tert-butylaminoquinoxaline], the “effect on GLP-1 7–36 amide potency (cAMP)” value [1] is given as “actually reduced GLP-1 7–36 amide potency”, the “ERK activation in wild-type HEK293 cells” value [2] is given as “Neither GLP-1 9–36 amide, GLP-1 7–36 amide nor compound 2 increased ERK activation” and the “effect on forskolin-stimulated cAMP generation” value [3] is given as “inability of compound 2 to influence cAMP generation”. For the same compound, the “fluorescence change sensitive to thapsigargin” value ([4]; compound 2, 10 µM) was “did not cause an appreciable, thapsigargin-sensitive increase in fluorescence”, the “fluorescence change sensitive to thapsigargin” value ([4]; compound 2, 100 µM, with/without thapsigargin (2 µM, 5 min)) was “a proportion of the change in fluorescence in response to compound 2 was blocked by thapsigargin” and the “effect on GLP-1 7–36 amide-mediated internalization of the GLP-1R” value [5] was “can inhibit GLP-1 7–36 amide-mediated internalization of the GLP-1R”. For the same compound, the “effect on cAMP generation by the β-adrenoceptor” value ([6]; Figure 3D) was “inability of compound 2 to influence cAMP generation” and the “cAMP accumulation on co-stimulation with isoproterenol and compound 2 versus numerical sum” value ([6]; isoproterenol (100 µM) + compound 2 (1 µM), IBMX, 5% DMSO) was “only equivalent to the numerical addition of responses to the two ligands when used alone”.
